Data reported in patent US4935440A, “3-[ω-(3,5-Di-t-butyl-4-hydroxyphenyl)alkyl]pyrroles, and anti-inflammatory uses thereof” (Syntex (U.S.A.) Inc., priority 1989, dated 1990).
“And” between values parts separate entries of the source, which are not always exact repeats. Equal entries are not always repeated.

What was measured:
[1] = as reported by Isomura, et al., Chem. Pharm. Bull., 32(1): 152-165 (1984); cited from earlier work
[2] = tested on: Female Hla:(SD) BR rats; assay: Adjuvant-Induced Arthritis Assay "AI"; format: in vivo, rat; conditions: oral, day 18, vs control animals
Description: Anti-inflammatory activity is determined by the Adjuvant-Induced Arthritis ("AI") Assay, as is well accepted in the art. A modification of the assay described by Pearson, et al., supra., is performed as follows:
Female Hla:(SD) BR rats weighting 160-180 g are randomly distributed to treatment groups of 12 animals, and given food and water ad libitum. Test materials are prepared fresh weekly as suspensions in carboxymethyl cellulose. The test animals are orally dosed with the suspensions in volumes of 1 ml twice per day Monday through Friday, and with 2 ml once per day on Saturdays and Sundays. […] At time 0, rats are injected intradermally in the proximal quarter of the tail with 0.1 ml of a mineral oil suspension of heat-killed Mycobacterium butyricum (Difco) at a concentration of 10 mg/ml. On day 18 the intensity of swelling in the four paws and tail is estimated visually and scored (0-4 for paws, 0-3 for tail) such that the total maximum score, indicating intense swelling of all four paws and tail, is 19. The animals are then sacrificed; the hind paws of each animal are removed and weighed. The percent inhibition is calculated by comparing the weight increase of the hind paws of the test animals versus the control animals.
The "AI" assay, as described in Example 29, was performed using 3-(3,5-di-t-butyl-4-hydroxybenzoyl)pyrrole (prepared according to Example 2) as the test material.

[3] = tested on: mice; assay: Arachidonic Acid-Induced Mouse Ear Edema Assay "AAI"; format: in vivo; conditions: topical in acetone
Description: Topical anti-inflammatory activity is determined by the Arachidonic Acid-Induced Mouse Ear Edema "AAI" Assay, as is well accepted in the art. A modification of the assay described by Young, et al., supra., is performed as follows:
The test materials are prepared as solutions in acetone and applied to the right ears of mice, in groups of eight (8), at hour 0. At hour 1, 2 mg of arachidonic acid in acetone solution is applied to the right ears of the mice to induce an inflammatory response. The left ears of these animals serves as negative controls. At hour 2 the mice are sacrificed; their ears are removed and 8 mm diameter full thickness plugs are cut from the tip of each ear. The plugs are weighed and the mean right and left plug weights are calculated for each group. The results are expressed as percent inhibition of ear plug weight increase relative to a positive control group receiving only acetone at hour 0.

SMILES: Cc1[nH]ccc1-c1cc(C(C)(C)C)c(O)c(C(C)(C)C)c1 [Formula VIII]
- anti-inflammatory activity [1]: inactive

SMILES: CC(C)(C)c1cc(C(=O)c2cc[nH]c2)cc(C(C)(C)C)c1O [A, 3-(3,5-di-t-butyl-4-hydroxybenzoyl)pyrrole]
- inhibition of hind paw weight increase ([2]; daily dose 0.4 mg/kg of body weight): 54%
- inhibition of hind paw weight increase ([2]; daily dose 2.0 mg/kg of body weight): 70%
- Inhibition (AAI) of ear plug weight increase ([3]; dose 0.5 mg/ear): 49%
- Inhibition (AAI) of ear plug weight increase ([3]; dose 1.0 mg/ear): 62%
- Inhibition (AAI) of ear plug weight increase ([3]; dose 2.0 mg/ear): 67% and 69%

SMILES: CC(C)(C)c1cc(C(=O)c2ccc[nH]2)cc(C(C)(C)C)c1O [B, 2-(3,5-di-t-butyl-4-hydroxybenzoyl)pyrrole, reference compound]
- Inhibition (AAI) of ear plug weight increase ([3]; dose 2.0 mg/ear): 22%
